Reference: ChEMBL document CHEMBL4507327 (2021)

How the values were obtained:
[1] = target: Serine/threonine-protein kinase MRCK alpha (Homo sapiens, UniProt Q5VT25); assay: MRCKalpha(CD4ALGY1) Takeda global kinase panel
Ephrin type-B receptor 1 = Ephrin type-B receptor 1 (Homo sapiens, UniProt P54762); assay: EphB1(EPB1LGY1) Takeda global kinase panel
[2] = target: Mitogen-activated protein kinase kinase kinase 14 (Homo sapiens, UniProt Q99558); assay: NIK(M314LGP1) Takeda global kinase panel
[3] = target: Mitogen-activated protein kinase kinase kinase 5 (Homo sapiens, UniProt Q99683); assay: ASK [MAP3K5(M3K5LGA1)] Takeda global kinase panel
[4] = target: Kappa-type opioid receptor (Homo sapiens) (UniProt P41145); conditions: Compound concentration 10.0 uM
[5] = target: Serine/threonine-protein kinase greatwall (Homo sapiens, UniProt Q96GX5); assay: MASTL(MASLLGE1) Takeda global kinase panel
[6] = target: Mu-type opioid receptor (Homo sapiens) (UniProt P35372); conditions: Compound concentration 10.0 uM
Sequence of Mu-type opioid receptor (Homo sapiens) (P35372 whole entry): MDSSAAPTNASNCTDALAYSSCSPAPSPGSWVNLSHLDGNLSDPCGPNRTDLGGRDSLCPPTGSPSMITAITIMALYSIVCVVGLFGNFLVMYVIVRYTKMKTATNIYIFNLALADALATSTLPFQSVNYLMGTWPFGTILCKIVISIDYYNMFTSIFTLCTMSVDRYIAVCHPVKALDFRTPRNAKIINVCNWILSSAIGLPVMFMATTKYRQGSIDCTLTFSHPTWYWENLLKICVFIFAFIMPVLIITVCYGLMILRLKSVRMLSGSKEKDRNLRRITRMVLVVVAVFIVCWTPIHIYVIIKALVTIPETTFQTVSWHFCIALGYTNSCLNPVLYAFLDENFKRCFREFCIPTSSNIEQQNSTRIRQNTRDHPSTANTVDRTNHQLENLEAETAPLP

[7] = target: Mitogen-activated protein kinase 10 (Homo sapiens, UniProt P53779); assay: JNK3(MP10LGF2) Takeda global kinase panel
[8] = target: T1, 5-hydroxytryptamine receptor 3A (Homo sapiens) (UniProt P46098); assay: Inhibition of Serotonin (5-Hydroxytryptamine) 5-HT3 at 10 µM in the Eurofins-Panlabs radioligand binding assay (Eurofins_assay_271910); parameters: ligand concentration 0.69 nM; conditions: Compound concentration 10.0 uM
T1 sequence (whole entry): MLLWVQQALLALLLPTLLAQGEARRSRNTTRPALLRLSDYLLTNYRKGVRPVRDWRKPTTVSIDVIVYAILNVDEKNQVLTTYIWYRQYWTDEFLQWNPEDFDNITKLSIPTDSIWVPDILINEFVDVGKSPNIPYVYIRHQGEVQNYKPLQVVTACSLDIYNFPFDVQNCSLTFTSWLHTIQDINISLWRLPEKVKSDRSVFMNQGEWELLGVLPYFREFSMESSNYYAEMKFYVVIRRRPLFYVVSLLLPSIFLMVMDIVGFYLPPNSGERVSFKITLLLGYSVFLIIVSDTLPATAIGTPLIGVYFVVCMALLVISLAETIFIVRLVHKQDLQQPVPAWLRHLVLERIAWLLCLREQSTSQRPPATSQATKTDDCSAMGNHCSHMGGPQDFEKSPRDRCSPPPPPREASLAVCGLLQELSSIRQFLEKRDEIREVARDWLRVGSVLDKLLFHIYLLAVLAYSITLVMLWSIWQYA

Ephrin type-A receptor 1 = Ephrin type-A receptor 1 (Homo sapiens, UniProt P21709); assay: EphA1(EPA1LGY1) Takeda global kinase panel
[9] = target: Calcium/calmodulin-dependent protein kinase type IV (Homo sapiens, UniProt Q16566); assay: CaMK4(CAM4LGY1) Takeda global kinase panel
[10] = target: Serine/threonine-protein kinase D3 (Homo sapiens, UniProt O94806); assay: PKD3(PRD3LGG5) Takeda global kinase panel
Sequence of Serine/threonine-protein kinase D3 (O94806 whole entry): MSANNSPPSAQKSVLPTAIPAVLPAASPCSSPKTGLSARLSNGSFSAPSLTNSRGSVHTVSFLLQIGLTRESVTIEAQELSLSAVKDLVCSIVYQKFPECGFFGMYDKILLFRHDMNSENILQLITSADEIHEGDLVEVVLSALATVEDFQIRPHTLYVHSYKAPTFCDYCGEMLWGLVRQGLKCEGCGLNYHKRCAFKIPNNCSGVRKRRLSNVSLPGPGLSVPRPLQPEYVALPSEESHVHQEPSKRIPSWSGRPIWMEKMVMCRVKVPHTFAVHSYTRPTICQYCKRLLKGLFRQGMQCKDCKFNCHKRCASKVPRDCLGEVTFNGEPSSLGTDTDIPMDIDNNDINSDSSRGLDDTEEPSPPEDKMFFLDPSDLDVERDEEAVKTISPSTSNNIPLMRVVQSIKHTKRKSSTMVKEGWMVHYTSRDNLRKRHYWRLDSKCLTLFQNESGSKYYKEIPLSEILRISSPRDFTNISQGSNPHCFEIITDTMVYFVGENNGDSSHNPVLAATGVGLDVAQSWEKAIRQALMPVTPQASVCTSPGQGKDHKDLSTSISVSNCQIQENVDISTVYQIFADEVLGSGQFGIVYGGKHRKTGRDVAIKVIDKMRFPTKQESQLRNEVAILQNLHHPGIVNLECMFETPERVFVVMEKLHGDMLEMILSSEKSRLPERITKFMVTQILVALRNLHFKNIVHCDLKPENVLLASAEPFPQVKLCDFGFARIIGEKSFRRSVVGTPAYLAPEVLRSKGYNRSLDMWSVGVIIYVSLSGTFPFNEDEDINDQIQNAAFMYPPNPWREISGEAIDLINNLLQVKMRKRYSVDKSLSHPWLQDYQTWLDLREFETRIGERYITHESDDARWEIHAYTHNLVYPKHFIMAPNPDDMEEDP

[11] = target: Tyrosine-protein kinase TXK (Homo sapiens, UniProt P42681); assay: TXK(TXK1CGD5) Takeda global kinase panel
[12] = target: Calcium/calmodulin-dependent protein kinase type 1B (Homo sapiens, UniProt Q6P2M8); assay: CaMK1beta(PNCKLGRI) Takeda global kinase panel
[13] = target: Cyclin-dependent kinase 17 (Homo sapiens, UniProt Q00537); assay: PCTAIRE2(CD17SGS1) Takeda global kinase panel
[14] = target: Dual specificity testis-specific protein kinase 2 (Homo sapiens, UniProt Q96S53); assay: TESK2(TES2LGRL) Takeda global kinase panel
Rhodopsin kinase GRK1 = Rhodopsin kinase GRK1 (Homo sapiens, UniProt Q15835); assay: RHODK [GRK1(GRK1LGA1)] Takeda global kinase panel
Ephrin type-A receptor 6 = Ephrin type-A receptor 6 (Homo sapiens, UniProt Q9UF33); assay: EphA6(EPA6LGI5) Takeda global kinase panel
[15] = target: Serine/threonine-protein kinase OSR1 (Homo sapiens, UniProt O95747); assay: OSR1(OXS1LGY1) Takeda global kinase panel
Ephrin type-A receptor 8 = Ephrin type-A receptor 8 (Homo sapiens, UniProt P29322); assay: EphA8(EPA8LGF1) Takeda global kinase panel
[16] = target: Serine/threonine-protein kinase Nek5 (Homo sapiens, UniProt Q6P3R8); assay: Nek5(NEK5LGRD) Takeda global kinase panel
[17] = target: Protein-tyrosine kinase 6 (Homo sapiens, UniProt Q13882); assay: Brk(PTK6LGY1) Takeda global kinase panel
[18] = target: Cyclin-dependent kinase 1 (Homo sapiens, UniProt P06493); assay: CDC2 [CDK1(CDK1CGS1)] Takeda global kinase panel
[19] = target: Protein kinase C epsilon type (Homo sapiens, UniProt Q02156); assay: PKCepsilon(PRKELHY1) Takeda global kinase panel
Ephrin type-A receptor 3 = Ephrin type-A receptor 3 (Homo sapiens, UniProt P29320); assay: EphA3(EPA3LGD5) Takeda global kinase panel
Ephrin type-B receptor 2 = Ephrin type-B receptor 2 (Homo sapiens, UniProt P29323); assay: EphB2(EPB2LGY1) Takeda global kinase panel
Sequence of Ephrin type-B receptor 2 (P29323 whole entry): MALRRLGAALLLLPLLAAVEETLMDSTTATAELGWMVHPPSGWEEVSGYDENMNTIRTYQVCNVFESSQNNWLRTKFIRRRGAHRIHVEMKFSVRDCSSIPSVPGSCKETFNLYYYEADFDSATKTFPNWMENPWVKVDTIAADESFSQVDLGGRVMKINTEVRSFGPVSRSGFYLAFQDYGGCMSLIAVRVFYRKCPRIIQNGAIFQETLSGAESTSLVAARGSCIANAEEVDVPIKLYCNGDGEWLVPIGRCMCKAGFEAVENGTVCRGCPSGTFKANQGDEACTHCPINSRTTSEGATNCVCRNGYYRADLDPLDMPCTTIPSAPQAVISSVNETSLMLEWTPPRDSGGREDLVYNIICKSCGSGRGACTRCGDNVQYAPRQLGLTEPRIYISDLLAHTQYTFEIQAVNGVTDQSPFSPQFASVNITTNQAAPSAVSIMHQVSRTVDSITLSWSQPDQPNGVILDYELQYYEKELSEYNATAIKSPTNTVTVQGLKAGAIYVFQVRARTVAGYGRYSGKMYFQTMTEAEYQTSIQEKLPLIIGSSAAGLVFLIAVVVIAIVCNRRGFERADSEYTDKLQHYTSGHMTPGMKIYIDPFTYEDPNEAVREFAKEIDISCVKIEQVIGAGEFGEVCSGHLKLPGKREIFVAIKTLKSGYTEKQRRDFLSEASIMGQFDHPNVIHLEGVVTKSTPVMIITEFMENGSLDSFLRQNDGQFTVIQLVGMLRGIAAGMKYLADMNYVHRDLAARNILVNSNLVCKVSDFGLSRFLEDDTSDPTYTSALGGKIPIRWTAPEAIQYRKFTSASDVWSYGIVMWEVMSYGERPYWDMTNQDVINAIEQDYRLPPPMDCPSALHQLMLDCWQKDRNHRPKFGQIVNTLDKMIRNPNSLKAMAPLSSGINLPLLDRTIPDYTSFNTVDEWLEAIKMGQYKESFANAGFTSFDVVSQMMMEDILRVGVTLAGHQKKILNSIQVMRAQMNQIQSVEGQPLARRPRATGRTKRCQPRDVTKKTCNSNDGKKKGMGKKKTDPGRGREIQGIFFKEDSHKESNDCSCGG

[20] = target: Beta-2 adrenergic receptor (Homo sapiens) (UniProt P07550); conditions: Compound concentration 10.0 uM
Sequence of Beta-2 adrenergic receptor (Homo sapiens) (P07550 whole entry, looked up): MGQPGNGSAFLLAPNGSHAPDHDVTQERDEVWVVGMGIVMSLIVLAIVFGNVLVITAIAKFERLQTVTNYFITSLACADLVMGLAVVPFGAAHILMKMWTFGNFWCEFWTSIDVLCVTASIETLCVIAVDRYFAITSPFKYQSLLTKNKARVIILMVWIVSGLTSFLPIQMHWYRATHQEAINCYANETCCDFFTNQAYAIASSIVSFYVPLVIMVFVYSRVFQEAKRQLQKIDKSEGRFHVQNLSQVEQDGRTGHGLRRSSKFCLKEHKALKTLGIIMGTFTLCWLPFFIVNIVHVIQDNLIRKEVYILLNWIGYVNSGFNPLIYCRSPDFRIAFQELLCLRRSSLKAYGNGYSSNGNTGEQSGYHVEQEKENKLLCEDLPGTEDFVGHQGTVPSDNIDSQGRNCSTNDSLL

[21] = target: Serine/threonine-protein kinase PLK1 (Homo sapiens, UniProt P53350); assay: PLK1(PLK1LGY1) Takeda global kinase panel
Sequence of Serine/threonine-protein kinase PLK1 (P53350 whole entry): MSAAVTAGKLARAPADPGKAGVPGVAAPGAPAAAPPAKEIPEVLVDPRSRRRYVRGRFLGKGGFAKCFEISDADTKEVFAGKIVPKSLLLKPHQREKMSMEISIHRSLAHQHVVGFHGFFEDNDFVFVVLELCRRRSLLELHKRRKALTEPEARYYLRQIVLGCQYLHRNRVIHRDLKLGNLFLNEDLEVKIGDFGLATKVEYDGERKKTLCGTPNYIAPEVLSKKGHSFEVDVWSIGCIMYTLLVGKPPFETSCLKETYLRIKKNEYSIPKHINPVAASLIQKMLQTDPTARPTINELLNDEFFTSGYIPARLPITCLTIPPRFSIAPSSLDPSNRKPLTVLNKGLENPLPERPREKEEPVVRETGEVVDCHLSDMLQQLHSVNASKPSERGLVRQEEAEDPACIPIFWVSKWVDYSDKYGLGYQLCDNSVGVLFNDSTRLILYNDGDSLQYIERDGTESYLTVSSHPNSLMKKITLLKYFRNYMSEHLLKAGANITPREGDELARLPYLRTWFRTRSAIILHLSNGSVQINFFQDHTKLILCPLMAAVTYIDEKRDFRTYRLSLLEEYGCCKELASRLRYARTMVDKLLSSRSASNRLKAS

[22] = target: Delta-type opioid receptor (Homo sapiens) (UniProt P41143); conditions: Compound concentration 10.0 uM
[23] = target: Activin receptor type-1-like (Homo sapiens, UniProt P37023); assay: ALK1(ACL1LGF1) Takeda global kinase panel
[24] = target: Casein kinase I isoform gamma-3 (Homo sapiens, UniProt Q9Y6M4); assay: CK1gamma3(C1G3LGI5) Takeda global kinase panel
[25] = target: Protein kinase C alpha type (Homo sapiens, UniProt P17252); assay: PKCalpha(PRKALGY1) Takeda global kinase panel
[26] = target: T2, Muscarinic acetylcholine receptor M2 (Homo sapiens) (UniProt P08172); conditions: Compound concentration 10.0 uM
T2 sequence (whole entry): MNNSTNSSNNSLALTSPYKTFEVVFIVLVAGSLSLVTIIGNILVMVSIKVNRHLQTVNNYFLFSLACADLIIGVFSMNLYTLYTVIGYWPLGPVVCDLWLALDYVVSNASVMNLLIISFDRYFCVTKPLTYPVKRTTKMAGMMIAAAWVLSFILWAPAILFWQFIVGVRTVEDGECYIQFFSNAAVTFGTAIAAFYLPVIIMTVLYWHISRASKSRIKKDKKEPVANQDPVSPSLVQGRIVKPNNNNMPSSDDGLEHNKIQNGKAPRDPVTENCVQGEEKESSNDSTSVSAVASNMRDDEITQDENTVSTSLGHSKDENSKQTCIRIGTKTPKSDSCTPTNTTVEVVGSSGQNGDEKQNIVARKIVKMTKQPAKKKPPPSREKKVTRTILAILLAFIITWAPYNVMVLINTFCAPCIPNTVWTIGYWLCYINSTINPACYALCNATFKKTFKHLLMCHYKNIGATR

Sequence of Mitogen-activated protein kinase kinase kinase 14 (Q99558 whole entry): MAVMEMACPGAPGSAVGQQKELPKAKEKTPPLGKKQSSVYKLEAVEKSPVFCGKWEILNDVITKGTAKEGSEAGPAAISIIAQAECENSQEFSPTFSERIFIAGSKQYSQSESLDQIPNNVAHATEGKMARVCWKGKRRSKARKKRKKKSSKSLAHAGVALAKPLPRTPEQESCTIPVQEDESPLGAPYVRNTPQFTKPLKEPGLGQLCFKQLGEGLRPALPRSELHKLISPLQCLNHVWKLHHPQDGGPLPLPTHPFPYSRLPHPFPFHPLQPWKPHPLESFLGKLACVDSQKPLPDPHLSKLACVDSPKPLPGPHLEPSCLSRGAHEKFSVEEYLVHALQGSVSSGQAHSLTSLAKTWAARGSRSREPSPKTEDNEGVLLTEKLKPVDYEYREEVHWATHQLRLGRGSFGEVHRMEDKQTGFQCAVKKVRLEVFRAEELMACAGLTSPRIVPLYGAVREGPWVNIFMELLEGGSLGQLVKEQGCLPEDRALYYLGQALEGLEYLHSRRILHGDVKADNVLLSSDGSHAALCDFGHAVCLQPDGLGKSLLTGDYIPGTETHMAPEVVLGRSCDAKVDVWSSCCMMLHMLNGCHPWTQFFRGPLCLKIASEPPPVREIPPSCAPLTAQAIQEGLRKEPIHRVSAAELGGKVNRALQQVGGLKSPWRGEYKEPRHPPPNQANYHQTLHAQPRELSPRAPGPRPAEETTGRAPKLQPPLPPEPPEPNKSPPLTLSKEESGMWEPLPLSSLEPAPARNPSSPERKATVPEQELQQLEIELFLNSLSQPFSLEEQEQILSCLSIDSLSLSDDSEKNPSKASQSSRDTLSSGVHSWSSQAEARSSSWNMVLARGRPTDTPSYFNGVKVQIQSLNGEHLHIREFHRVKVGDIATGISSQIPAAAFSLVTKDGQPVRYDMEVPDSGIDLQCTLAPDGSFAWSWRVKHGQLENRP

Structure (SMILES) | IC50 [1] [nM] | IC50 (Ephrin type-B receptor 1) [nM] | IC50 [2] [nM] | IC50 [3] [nM] | inhibition [4] [%] | IC50 [5] [nM] | inhibition [6] [%] | IC50 [7] [nM] | inhibition [8] [%] | IC50 (Ephrin type-A receptor 1) [nM] | IC50 [9] [nM] | IC50 [10] [nM] | IC50 [11] [nM] | IC50 [12] [nM] | IC50 [13] [nM] | IC50 [14] [nM] | IC50 (Rhodopsin kinase GRK1) [nM] | IC50 (Ephrin type-A receptor 6) [nM] | IC50 [15] [nM] | IC50 (Ephrin type-A receptor 8) [nM] | also measured
CN1C(=O)[C@@H](N2CCc3cn(Cc4ccccc4)nc3C2=O)COc2ccccc21 [TP-030-1] | 1000 | 1000 | 1000 | 1000 | 3 | 1000 | 19 | 1000 | 6 | 1000 | 1000 | 1000 | 1000 | 1000 | 1000 | 1000 | 1000 | 1000 | 1000 | 1000 | IC50 [16]: 1000 nM; IC50 [17]: 1000 nM; IC50 [18]: 1000 nM; IC50 [19]: 1000 nM; IC50 (Ephrin type-A receptor 3): 1000 nM; IC50 (Ephrin type-B receptor 2): 1000 nM; inhibition [20]: -4%; IC50 [21]: 1000 nM; inhibition [22]: 3%; IC50 [23]: 1000 nM; IC50 [24]: 1000 nM; IC50 [25]: 1000 nM; inhibition [26]: -4%
CN1C(=O)[C@@H](N2CCc3cn(CC4CCS(=O)(=O)CC4)nc3C2=O)COc2ccccc21 [TP-030n] | 1000 | 1000 | 1000 | 1000 | 3 | 1000 | 4 | 1000 | 16 | 1000 | 1000 | 1000 | 1000 | 1000 | 1000 | 1000 | 1000 | 1000 | 1000 | 1000 | IC50 [16]: 1000 nM; IC50 [17]: 1000 nM; IC50 [18]: 1000 nM; IC50 [19]: 1000 nM; IC50 (Ephrin type-A receptor 3): 1000 nM; IC50 (Ephrin type-B receptor 2): 1000 nM; inhibition [20]: 4%; IC50 [21]: 1000 nM; inhibition [22]: -8%; IC50 [23]: 1000 nM; IC50 [24]: 1000 nM; IC50 [25]: 1000 nM; inhibition [26]: 9%
